Data from US7531554B2, “4-oxoquinoline compound and use thereof as HIV integrase inhibitor” (Japan Tobacco Inc., priority 2004, dated 2009).

Molecular target: T1, HIV integrase (Human immunodeficiency virus type 1 group M subtype B, UniProt P12497, F1332H)
T1 construct: HIV integrase full length gene (J. Virol., 67, 425-437 (1993)) in which phenylalanine at codon 185 was substituted by histidine; made in house; host or cells: Escherichia coli BL21(DE3)
Assay: Determination of enzyme (HIV integrase) inhibitory activity
Assay type: biochemical
Conditions: recombinant integrase protein (F185H), donor DNA/target DNA, absorbance at 450 nm
Description: HIV integrase full length gene (J. Virol., 67, 425-437 (1993)) in which phenylalanine at codon 185 was substituted by histidine, was inserted between the restriction enzyme NdeI and XhoI sites of plasmid pET21a(+) (Novagen), whereby an integrase expression vector pET21a-IN-F185H was constructed.
Escherichia coli recombinant BL21(DE3) transformed with plasmid pET21a-IN-F185H obtained in (i) was shake cultured at 30° C. in a liquid medium containing ampicillin. When the culture reached the logarithmic growth phase, isopropyl-β-D-thiogalactopyranoside was added to promote expression of integrase gene. The culture was continued for 3 hr to promote accumulation of the integrase protein. The recombinant E. coli was collected in pellets by centrifugal separation and preserved at −80° C.
The E. coli was suspended in Lysis buffer (20 mM HEPES (pH 7.5), 5 mM DTT, 10 mM CHAPS, 10% glycerol) containing 1M sodium chloride and subjected to repeat pressurization and depressurization for rupture, and centrifugal separation at 4° C., 40,000×g, 60 min to recover a water-soluble fraction (supernatant). This was diluted 10-fold with Lysis buffer free of sodium chloride, mixed with SP-Sepharose (Pharmacia Corporation) and stirred at 4° C. for 60 min to allow adsorption of integrase protein to the resin. The resin was washed with Lysis buffer containing 100 mM sodium chloride and the integrase protein was eluted with Lysis buffer containing 1M sodium chloride.
The eluted integrase protein solution was subjected to a Superdex 75 (Pharmacia Corporation) column for gel filtration. The protein was eluted with Lysis buffer containing 1M sodium chloride.
The obtained fractions of the integrase protein were collected and preserved at −80° C.
The following DNA synthesized by Greiner was dissolved in TE buffer (10 mM Tris-hydrochloric acid (pH 8.0), 1 mM EDTA) and mixed with donor DNA, target DNA, and each complementary strand (+ and − strands) to 1 μM. The mixture was heated at 95° C. for 5 min, 80° C. for 10 min, 70° C. for 10 min, 60° C. for 10 min, 50° C. for 10 min and 40° C. for 10 min and kept at 25° C. to give a double stranded DNA, which was used for the test. Donor DNA ([…] attached to the 5′ terminal) Donor + strand: 5′-Biotin-ACCCTTTTAGTCAGTGTGGAAAATCTCTAGCA-3′ (SEQ ID NO:1) Donor − strand: 5′-ACTGCTAGAGATTTTCCACACTGACTAAAAG-3′ (SEQ ID NO:2) Target DNA (+, − strands both having digoxigenin added at 3′ terminal) Target + strand: 5′-TGACCAAGGGCTAATTCACT-Dig-3′ (SEQ ID NO:3) Target − strand: 5′-AGTGAATTAGCCCTTGGTCA-Dig-3′ (SEQ ID NO:4)
The donor DNA was diluted with TE buffer to 10 nM, of which 50 μl was added to each well of streptavidin-coated microtiter plate (Roche) and allowed to adsorb at 37° C. for 60 min. The plate was washed with phosphate buffer (Dulbecco's PBS, Sanko Junyaku Co., Ltd.) containing 0.1% Tween 20 and phosphate buffer. Then, an enzyme reaction mixture (70 μl), a test substance (10 μl) diluted with the reaction mixture and 100 μg/ml integrase protein (10 μl) were added to each well and reacted at 37° C. for 60 min.
Then, 50 nM target DNA (10 μl) was added, reacted at 37° C. for 10 min and washed with phosphate buffer containing 0.1% Tween 20 to stop the reaction.
Then, 100 mU/ml peroxidase labeled anti-digoxigenin antibody solution (Roche, 100 μl) was added, and the mixture was reacted at 37° C. for 60 min, followed by washing with phosphate buffer containing 0.1% Tween 20.
A peroxidase color solution (Bio Rad, 100 μl) was added and allowed to react at room temperature for 4 min. The color reaction was stopped by adding 1N sulfuric acid (100 μl). The absorbance at 450 nm was measured.
The HIV integrase inhibitory activity (IC50) of the compound of the present invention was calculated from the inhibition rate according to the following formula. […]

COC[C@@H](CO)n1cc(C(=O)O)c(=O)c2cc(Cc3cccc(Cl)c3F)ccc21 [Example 2-14, 6-(3-chloro-2-fluorobenzyl)-1-((1R)-1-(hydroxymethyl)-2-methoxyethyl)-4-oxo-1,4-dihydroquinoline-3-carboxylic acid]
IC50: 13 nM

CO[C@H](C)[C@@H](CO)n1cc(C(=O)O)c(=O)c2cc(Cc3cccc(Cl)c3F)ccc21 [Example 2-15, 6-(3-chloro-2-fluorobenzyl)-1-((1R,2R)-1-(hydroxymethyl)-2-methoxypropyl)-4-oxo-1,4-dihydroquinoline-3-carboxylic acid]
IC50: 5.2 nM

CSCC[C@@H](CO)n1cc(C(=O)O)c(=O)c2cc(Cc3cccc(Cl)c3F)ccc21 [Example 2-16, 6-(3-chloro-2-fluorobenzyl)-1-((1S)-1-(hydroxymethyl)-3-(methylthio)propyl)-4-oxo-1,4-dihydroquinoline-3-carboxylic acid]
IC50: 5.8 nM

CS(=O)(=O)CC[C@@H](CO)n1cc(C(=O)O)c(=O)c2cc(Cc3cccc(Cl)c3F)ccc21 [Example 2-17, 6-(3-chloro-2-fluorobenzyl)-1-((1S)-1-(hydroxymethyl)-3-mesylpropyl)-4-oxo-1,4-dihydroquinoline-3-carboxylic acid]
IC50: 14 nM

COC[C@@H](CO)n1cc(C(=O)O)c(=O)c2cc(Cc3cccc(Cl)c3F)c(OC)cc21 [Example 2-18, 6-(3-chloro-2-fluorobenzyl)-1-((1R)-1-(hydroxymethyl)-2-methoxyethyl)-7-methoxy-4-oxo-1,4-dihydroquinoline-3-carboxylic acid]
IC50: 6 nM

CC(C)[C@@H](CO)n1cc(C(=O)O)c(=O)c2cc(Cc3cccc(Cl)c3F)cc(OCCO)c21 [Example 3-1, 6-(3-chloro-2-fluorobenzyl)-8-(2-hydroxyethoxy)-1-((1S)-1-(hydroxymethyl)-2-methylpropyl)-4-oxo-1,4-dihydroquinoline-3-carboxylic acid]
IC50: 5.1 nM

CC(C)[C@@H](CO)n1cc(C(=O)O)c(=O)c2cc(Cc3cccc(Cl)c3F)cc(OCCCO)c21 [Example 3-2, 6-(3-chloro-2-fluorobenzyl)-1-((1S)-1-(hydroxymethyl)-2-methylpropyl)-8-(3-hydroxypropoxy)-4-oxo-1,4-dihydroquinoline-3-carboxylic acid]
IC50: 4.7 nM

CC(C)[C@@H](CO)n1cc(C(=O)O)c(=O)c2cc(Cc3cccc(Cl)c3F)cc(OCCCCO)c21 [Example 3-3, 6-(3-chloro-2-fluorobenzyl)-8-(4-hydroxybutoxy)-1-((1S)-1-(hydroxymethyl)-2-methylpropyl)-4-oxo-1,4-dihydroquinoline-3-carboxylic acid]
IC50: 6.3 nM

COCCOc1cc(Cc2cccc(Cl)c2F)cc2c(=O)c(C(=O)O)cn([C@H](CO)C(C)C)c12 [Example 3-4, 6-(3-chloro-2-fluorobenzyl)-1-((1S)-1-(hydroxymethyl)-2-methylpropyl)-8-(2-methoxyethoxy)-4-oxo-1,4-dihydroquinoline-3-carboxylic acid]
IC50: 4.5 nM

CC(C)[C@@H](CO)n1cc(C(=O)O)c(=O)c2cc(Cc3cccc(Cl)c3F)cc(O)c21 [Example 3-5, 6-(3-chloro-2-fluorobenzyl)-8-hydroxy-1-((1S)-1-(hydroxymethyl)-2-methylpropyl)-4-oxo-1,4-dihydroquinoline-3-carboxylic acid]
IC50: 4 nM

CC(C)[C@@H](CO)n1cc(C(=O)O)c(=O)c2cc(Cc3cccc(Cl)c3F)cc(OCCN(C)C)c21 [Example 3-6, 6-(3-chloro-2-fluorobenzyl)-8-(2-(dimethylamino)ethoxy)-1-((1S)-1-(hydroxymethyl)-2-methylpropyl)-4-oxo-1,4-dihydroquinoline-3-carboxylic acid]
IC50: 11 nM

COCCCOc1cc(Cc2cccc(Cl)c2F)cc2c(=O)c(C(=O)O)cn([C@H](CO)C(C)C)c12 [Example 3-7, 6-(3-chloro-2-fluorobenzyl)-1-((1S)-1-(hydroxymethyl)-2-methylpropyl)-8-(3-methoxypropoxy)-4-oxo-1,4-dihydroquinoline-3-carboxylic acid]
IC50: 4.7 nM

COCCCCOc1cc(Cc2cccc(Cl)c2F)cc2c(=O)c(C(=O)O)cn([C@H](CO)C(C)C)c12 [Example 3-8, 6-(3-chloro-2-fluorobenzyl)-1-((1S)-1-(hydroxymethyl)-2-methylpropyl)-8-(4-methoxybutoxy)-4-oxo-1,4-dihydroquinoline-3-carboxylic acid]
IC50: 4 nM

CC(C)[C@@H](CO)n1cc(C(=O)O)c(=O)c2cc(Cc3cccc(Cl)c3F)cc(OCc3ccccc3)c21 [Example 3-9, 8-benzyloxy-6-(3-chloro-2-fluorobenzyl)-1-((1S)-1-(hydroxymethyl)-2-methylpropyl)-4-oxo-1,4-dihydroquinoline-3-carboxylic acid]
IC50: 5 nM

COCCOc1cc2c(cc1Cc1cccc(Cl)c1F)c(=O)c(C(=O)O)cn2[C@H](CO)C(C)C [Example 4-1, 6-(3-chloro-2-fluorobenzyl)-1-((1S)-1-(hydroxymethyl)-2-methylpropyl)-7-(2-methoxyethoxy)-4-oxo-1,4-dihydroquinoline-3-carboxylic acid]
IC50: 4.4 nM

CC(C)[C@@H](CO)n1cc(C(=O)O)c(=O)c2cc(Cc3cccc(Cl)c3F)c(OCCN(C)C)cc21 [Example 4-2, 6-(3-chloro-2-fluorobenzyl)-7-(2-(dimethylamino)ethoxy)-1-((1S)-1-(hydroxymethyl)-2-methylpropyl)-4-oxo-1,4-dihydroquinoline-3-carboxylic acid]
IC50: 6 nM

CNS(=O)(=O)COc1cc2c(cc1Cc1cccc(Cl)c1F)c(=O)c(C(=O)O)cn2[C@H](CO)C(C)C [Example 4-3, 6-(3-chloro-2-fluorobenzyl)-1-((1S)-1-(hydroxymethyl)-2-methylpropyl)-7-((methylamino)sulfonylmethoxy)-4-oxo-1,4-dihydroquinoline-3-carboxylic acid]
IC50: 4.7 nM

CCc1cc2c(cc1Cc1cccc(Cl)c1F)c(=O)c(C(=O)O)cn2[C@H](CO)C(C)C [Example 4-4, 6-(3-chloro-2-fluorobenzyl)-7-ethyl-1-((1S)-1-(hydroxymethyl)-2-methylpropyl)-4-oxo-1,4-dihydroquinoline-3-carboxylic acid]
IC50: 4.7 nM

CC(C)[C@@H](CO)n1cc(C(=O)O)c(=O)c2cc(Cc3cccc(Cl)c3F)c(OCCCCO)cc21 [Example 4-5, 6-(3-chloro-2-fluorobenzyl)-7-(4-hydroxybutoxy)-1-((1S)-1-(hydroxymethyl)-2-methylpropyl)-4-oxo-1,4-dihydroquinoline-3-carboxylic acid]
IC50: 3.4 nM

CC(C)[C@@H](CO)n1cc(C(=O)O)c(=O)c2cc(Cc3cccc(Cl)c3F)c(OCCCN(C)C)cc21 [Example 4-6, 6-(3-chloro-2-fluorobenzyl)-7-(3-(dimethylamino)propoxy)-1-((1S)-1-(hydroxymethyl)-2-methylpropyl)-4-oxo-1,4-dihydroquinoline-3-carboxylic acid]
IC50: 6.3 nM

CC(C)[C@@H](CO)n1cc(C(=O)O)c(=O)c2cc(Cc3cccc(Cl)c3F)c(OCCCCN(C)C)cc21 [Example 4-7, 6-(3-chloro-2-fluorobenzyl)-7-(4-(dimethylamino)butoxy)-1-((1S)-1-(hydroxymethyl)-2-methylpropyl)-4-oxo-1,4-dihydroquinoline-3-carboxylic acid]
IC50: 5 nM
